Converted amounts (≈) assume the structure as drawn. Bridge positions count the residues as written; N and C are the ends. Square brackets hold non-standard residues; d marks the D form. Peptide text beside a SMILES is read from it. I, II: the chains in the order shown. βAla = NCCC(=O)O
Tests used:
[1] = system: P.aeruginosa AV 65; assay type: cell-based, Pseudomonas aeruginosa
Protocol: (§1) MICs were determined using a standard microdilution assay as recommended by the Clinical and Laboratory Standards Institute. Assays were performed in triplicate using cation-supplemented Mueller-Hinton (MH) broth (Becton Dickinson, Franklin Lakes, NJ, USA) and a bacterial inoculum of 5x10^4 CFU/well, in a final volume of 100 µl. The tested concentrations ranged from 0.1 µM to 24 µM for both peptides. Results were recorded after 18–20 h of incubation at 37°C.

[2] = system: S.aureus 3851; assay type: cell-based, Staphylococcus aureus
Protocol: as §1

[3] = system: S.aureus USA 300; assay type: cell-based, Staphylococcus aureus
Protocol: as §1

[4] = system: S.epidermidis ATCC 14990; test: MIC, standard microdilution assay; assay type: cell-based, Staphylococcus epidermidis; conditions: Reference strain, wild type; CLSI microdilution, cation-supplemented Mueller-Hinton broth, 5x10^4 CFU/well, 18–20 h at 37°C, triplicate
Protocol: as §1

[5] = system: E. coli ATCC 25922 biofilm; assay type: cell-based, Escherichia coli; conditions: ATCC 25922, 20 h
Protocol: Biofilm formation was performed by adapting the procedure described in [39] using the Calgary Biofilm Device (Innovotech, Innovotech Inc. Edmonton, Canada). Briefly, 96-well plates containing the bacterial inoculum were sealed with lids bearing 96 pegs on which the biofilm could build up. The plates were placed in an orbital incubator at 35°C (for P. aeruginosa and E. coli) or 37°C (for S. aureus) for 20 h under agitation at 125 rpm. Once biofilms formed, the lids were removed from the plates and the pegs were rinsed twice with phosphate buffered saline (PBS) to remove planktonic cells. The peg-lid was then transferred to a 96-well challenge microtiter plate, each well containing 200 µl of a twofold serial dilution of each peptide in LB medium. The challenge plate was incubated at 37°C for 2 hours. Peptide activity on pre-formed biofilm was evaluated by two independent methods: (i) visual observation of bacterial growth and (ii) counting of living bacterial cells after peptide treatment. In the first case, the peg-lid was removed from the challenge plate, rinsed with PBS and used to cover a 96-well recovery microtiter plate, each well containing 200 µl LB medium. The recovery plate was sealed, incubated at 37°C for 4 hours and then observed for any visible growth of bacteria detached from the peptide-treated biofilm. […]

[6] = system: S. aureus ATCC 25923 biofilm; assay type: cell-based, Staphylococcus aureus; conditions: for Minimum biofilm eradication concentration (MBEC): ATCC 25923, 20 h
Protocol: Biofilm formation was performed by adapting the procedure described in [39] using the Calgary Biofilm Device (Innovotech, Innovotech Inc. Edmonton, Canada). Briefly, 96-well plates containing the bacterial inoculum were sealed with lids bearing 96 pegs on which the biofilm could build up. The plates were placed in an orbital incubator at 35°C (for P. aeruginosa and E. coli) or 37°C (for S. aureus) for 20 h under agitation at 125 rpm. Once biofilms formed, the lids were removed from the plates and the pegs were rinsed twice with phosphate buffered saline (PBS) to remove planktonic cells. The peg-lid was then transferred to a 96-well challenge microtiter plate, each well containing 200 µl of a twofold serial dilution of each peptide in LB medium. The challenge plate was incubated at 37°C for 2 hours. Peptide activity on pre-formed biofilm was evaluated by two independent methods: (i) visual observation of bacterial growth and (ii) counting of living bacterial cells after peptide treatment. In the first case, the peg-lid was removed from the challenge plate, rinsed with PBS and used to cover a 96-well recovery microtiter plate, each well containing 200 µl LB medium. The recovery plate was sealed, incubated at 37°C for 4 hours and then observed for any visible growth of bacteria detached from the peptide-treated biofilm. Growth of bacteria in a particular well indicated regrowth of planktonic cells from surviving biofilm. Minimum biofilm eradication concentration (MBEC) was defined as the minimum peptide concentration preventing regrowth of bacteria from the treated biofilm within 4 hours.

[7] = target: T1, Staphylococcus aureus aureolysin (Staphylococcus aureus, UniProt P81177); assay type: in vitro ADME; conditions: 1 mM CaCl2 pH 7.8, 37°C; for time of stability / degradation on incubation with aureolysin: 300 µg peptide + 3 µg S. aureus aureolysin in 300 µl 20 mM Tris-HCl, HPLC and MALDI MS read-out
T1 construct: purchased BioCol GmbH
Protocol: Tetrabranched M33-L or M33-D peptides (300 µg) were incubated at 37°C with Staphylococcus aureus aureolysin (3 µg, BioCol GmbH) or Pseudomonas aeruginosa elastase (3 µg, Calbiochem) in 300 µl 20 mM Tris-HCl, 1 mM CaCl2 pH 7.8. At indicated time intervals, 50 µl aliquots were removed, diluted with 950 µl of 0.1% trifluoroacetic acid (TFA)/water and analyzed by HPLC and mass spectrometry. Liquid chromatography was performed on Phenomenex Jupiter C18 analytical column (300 Å, 5 µm, 250×4.6 mm) in a 30 min gradient, using TFA 0.1%/water as solvent A and methanol as solvent B. Mass spectrometry analysis was performed on withdrawn samples and repeated on HPLC-eluted peaks with a Bruker Daltonic ultraflex MALDI TOF/TOF mass spectrometer.

[8] = Calcein release from liposomes mimicking the membrane of E. coli; conditions: PE/PG 7∶3 liposomes, 50 µM lipid, 10 min at 20°C, peptide 0,5 to 15 µM, fluorescence 490/517 nm, three independent experiments
Description: To investigate interaction of peptides M33-D and M33-L with the bacterial membrane, including possible perturbation, we used vesicles with two lipid compositions to mimic the membrane of S. aureus (CL/PG, 4∶6 mol/mol) and E. coli (PE/PG, 7∶3 mol/mol). […] The peptide-induced effect was dose-dependent in both vesicle lipid compositions. […] No significant differences in the effects induced by M33-D and M33-L were evident, although the D peptide seemed slightly more efficient towards CL/PG liposomes at doses above 8 µM. […] The greater perturbing effect of both forms of M33 on PE/PG vesicles, compared to vesicles containing cardiolipin, was evident.
Calcein-loaded liposomes of two different composition (PE/PG, 7∶3 mol/mol and CL/PG, 4∶6 mol/mol) were prepared as follows. […] Lipid concentration of vesicles was measured by the method of Stewart and the final concentration used for all measurements was 50 µM. Calcein fluorescence in the vesicles is self-quenched and leakage was measured by relief of quenching; the measurements were carried out at 517 nm, exciting at 490 nm, with a Perkin-Elmer LS 50B spectrofluorimeter. […] Leakage was calculated by the equation: [drawing 1] where F and Ft are fluorescence […] addition of detergent and F0 the fluorescence of intact vesicles.

[9] = system: Enterobacteriaceae; test: MIC comparison M33-D vs M33-L, Enterobacteriaceae; assay type: cell-based
Protocol: as §1

T1 sequence (P81177 209-509): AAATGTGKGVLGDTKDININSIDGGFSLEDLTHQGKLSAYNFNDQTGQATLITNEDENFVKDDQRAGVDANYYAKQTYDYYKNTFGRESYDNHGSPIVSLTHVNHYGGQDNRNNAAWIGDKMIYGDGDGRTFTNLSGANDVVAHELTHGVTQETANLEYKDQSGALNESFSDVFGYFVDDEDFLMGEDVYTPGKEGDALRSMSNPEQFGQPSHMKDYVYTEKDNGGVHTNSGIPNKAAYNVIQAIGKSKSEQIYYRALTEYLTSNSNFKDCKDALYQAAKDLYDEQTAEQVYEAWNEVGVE

Compound	MIC [1] [µM]	MIC [2] [µM]	MIC [3] [µM]	MIC [4] [µM]	Minimum biofilm eradication concentration (MBEC) [5] [µM]	Minimum biofilm eradication concentration (MBEC) [6] [µM]	time of stability / degradation on incubation with aureolysin [7] [h]	peptide concentration giving total calcein leakage [8] [µM]	fold lower activity (MIC) than M33-L [9]	activity in biofilm eradication experiments with respect to M33-D ([6]; S. aureus biofilm eradication, relative to M33-D) [%]	stability to aureolysin (in words) ([7]; 300 µg peptide + 3 µg S. aureus aureolysin, 20 mM Tris-HCl, HPLC and MS)
CC[C@@H](C)[C@@H](NC(=O)[C@@H](CCCCN)NC(=O)[C@H](N)CCCCN)C(=O)N[C@H](CCCNC(=N)N)C(=O)N[C@@H](C(=O)N[C@H](CCCNC(=N)N)C(=O)N[C@H](CC(C)C)C(=O)N[C@H](CO)C(=O)N[C@H](C)C(=O)NCCCC[C@H](NC(=O)[C@@H](C)NC(=O)[C@@H](CO)NC(=O)[C@@H](CC(C)C)NC(=O)[C@@H](CCCNC(=N)N)NC(=O)[C@H](NC(=O)[C@@H](CCCNC(=N)N)NC(=O)[C@H](NC(=O)[C@@H](CCCCN)NC(=O)[C@H](N)CCCCN)[C@H](C)CC)C(C)C)C(=O)NCCCC[C@H](NC(=O)[C@H](CCCCNC(=O)[C@@H](C)NC(=O)[C@@H](CO)NC(=O)[C@@H](CC(C)C)NC(=O)[C@@H](CCCNC(=N)N)NC(=O)[C@H](NC(=O)[C@@H](CCCNC(=N)N)NC(=O)[C@H](NC(=O)[C@@H](CCCCN)NC(=O)[C@H](N)CCCCN)[C@H](C)CC)C(C)C)NC(=O)[C@@H](C)NC(=O)[C@@H](CO)NC(=O)[C@@H](CC(C)C)NC(=O)[C@@H](CCCNC(=N)N)NC(=O)[C@H](NC(=O)[C@@H](CCCNC(=N)N)NC(=O)[C@H](NC(=O)[C@@H](CCCCN)NC(=O)[C@H](N)CCCCN)[C@H](C)CC)C(C)C)C(=O)NCCC(=O)O)C(C)C [M33-D] (I: H-[dK][dK][dI][dR][dV][dR][dL][dS][dA]KK[βAla]-OH / II: H-[dK][dK][dI][dR][dV][dR][dL][dS][dA]K / III: H-[dK][dK][dI][dR][dV][dR][dL][dS][dA] / IV: H-[dK][dK][dI][dR][dV][dR][dL][dS][dA]; amide I:10-IV:C, I:11-II:C, II:10-III:C; N-terminus assumed)	3 (≈ 14 µg/mL)	0.7 (≈ 3.28 µg/mL)	1.5 (≈ 7.02 µg/mL)	0.4 (≈ 1.87 µg/mL)	3	1.5	≥ 24	5	2–4 fold		
CC[C@H](C)[C@H](NC(=O)[C@H](CCCCN)NC(=O)[C@@H](N)CCCCN)C(=O)N[C@@H](CCCNC(=N)N)C(=O)N[C@H](C(=O)N[C@@H](CCCNC(=N)N)C(=O)N[C@@H](CC(C)C)C(=O)N[C@@H](CO)C(=O)N[C@@H](C)C(=O)NCCCC[C@H](NC(=O)[C@H](C)NC(=O)[C@H](CO)NC(=O)[C@H](CC(C)C)NC(=O)[C@H](CCCNC(=N)N)NC(=O)[C@@H](NC(=O)[C@H](CCCNC(=N)N)NC(=O)[C@@H](NC(=O)[C@H](CCCCN)NC(=O)[C@@H](N)CCCCN)[C@@H](C)CC)C(C)C)C(=O)NCCCC[C@H](NC(=O)[C@H](CCCCNC(=O)[C@H](C)NC(=O)[C@H](CO)NC(=O)[C@H](CC(C)C)NC(=O)[C@H](CCCNC(=N)N)NC(=O)[C@@H](NC(=O)[C@H](CCCNC(=N)N)NC(=O)[C@@H](NC(=O)[C@H](CCCCN)NC(=O)[C@@H](N)CCCCN)[C@@H](C)CC)C(C)C)NC(=O)[C@H](C)NC(=O)[C@H](CO)NC(=O)[C@H](CC(C)C)NC(=O)[C@H](CCCNC(=N)N)NC(=O)[C@@H](NC(=O)[C@H](CCCNC(=N)N)NC(=O)[C@@H](NC(=O)[C@H](CCCCN)NC(=O)[C@@H](N)CCCCN)[C@@H](C)CC)C(C)C)C(=O)NCCC(=O)O)C(C)C [M33-L] (I: H-KKIRVRLSAKK[βAla]-OH / II: H-KKIRVRLSAK / III: H-KKIRVRLSA / IV: H-KKIRVRLSA; amide I:10-IV:C, I:11-II:C, II:10-III:C; N-terminus assumed)	3 (≈ 14 µg/mL)	12 (≈ 56.2 µg/mL)	6 (≈ 28.1 µg/mL)	1.5 (≈ 7.02 µg/mL)	3	12	≤ 1	5		12	not at all stable
